Among the data in patent US6821980B1, “Substituted 5-benzyl-2,4-diaminopyrimidines” (Basilea Pharmaceutica AG, priority 1999, dated 2004) are MIC and IC50 values, retold here.

Each structure is given as a SMILES string. Converted amounts (≈) assume the structure as drawn.

For test [1], the system named is Streptococcus pneumoniae 1/1. Nature of the test: MIC against Streptococcus pneumoniae 1/1. It is filed as cell-based. Particulars: Table 2; Streptococcus pneumoniae 1/1, trimethoprim- and penicillin-resistant, serotype 6; clinical isolate; read-out: MIC Sp1/1.
The test system of test [2] is Staphylococcus aureus 101. As to the kind of experiment: MIC against Staphylococcus aureus 101. Particulars: Table 2; Staphylococcus aureus 101, MRSA- and trimethoprim-resistant; clinical isolate; read-out: MIC Sa101. It counts as cell-based.
Test [3] has as its target T1, purified DHFR of strain Sp1/1 of Streptococcus pneumoniae (Streptococcus pneumoniae serotype 4, UniProt Q54801).
T1 sequence (Q54801 1-168 I100L): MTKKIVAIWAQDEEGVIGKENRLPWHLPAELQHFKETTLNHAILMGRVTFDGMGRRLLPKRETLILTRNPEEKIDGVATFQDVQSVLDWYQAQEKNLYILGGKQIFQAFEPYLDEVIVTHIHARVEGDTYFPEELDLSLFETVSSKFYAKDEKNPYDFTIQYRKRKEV
It counts as biochemical. The note with it: Table 2; IC50 against purified DHFR of strain Sp1/1.

The target in test [4] is purified DHFR of strain 157/4696 of Staphylococcus aureus (Staphylococcus aureus, UniProt P13955). As to the kind of experiment: biochemical.
Sequence of purified DHFR of strain 157/4696 of Staphylococcus aureus (P13955 whole entry): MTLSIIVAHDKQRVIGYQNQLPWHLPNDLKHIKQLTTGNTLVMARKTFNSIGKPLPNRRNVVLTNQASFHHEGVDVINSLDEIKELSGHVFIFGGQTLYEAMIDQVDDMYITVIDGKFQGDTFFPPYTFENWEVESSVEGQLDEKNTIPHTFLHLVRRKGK

In general, IC50 refers to the concentration that gives 50% inhibition. A low value points to greater potency. Take `CCOc1cc(Cc2cnc(N)nc2N)cc(OCC2(CC#N)CC2)c1-c1ccc(O)cc1` [Example 08-c, {1-[4-(2,4-Diamino-pyrimidin-5-ylmethyl)-6-ethoxy-4′-hydroxy-biphenyl-2-yloxymethyl]-cyclopropyl}-acetonitrile]: the MIC is 4 µg/mL (≈ 8.98 µM) in test [1] and 8 µg/mL (≈ 18 µM) in test [2]. The values for the IC50 in test [3] and in test [4] were 24 nM and 1600 nM, respectively.
As to `CCOc1cc(Cc2cnc(N)nc2N)cc(OCC2(/C=C/C#N)CC2)c1-c1ccc(O)cc1` [Example 08-d, (E)-3-[1-[4-(2,4-Diamino-pyrimidin-5-ylmethyl)-6-ethoxy-4′-hydrozy-biphenyl-2-yloxymethyl]-cyopropyl]-acrylonitrile], the MIC in test [1] was 4 µg/mL (≈ 8.74 µM); in test [2], 8 µg/mL (≈ 17.5 µM). The concentration for half-maximal inhibition (IC50) in test [3] amounted to 16 nM; in test [4] it was 620 nM.
In the case of `CCOc1cc(Cc2cnc(N)nc2N)cc(OCCC2CCOCC2)c1-c1ccc(O)cc1` [Example 08-e, 4′-(2,4-Diamino-pyrimidin-5-ylmethyl)-6′-ethoxy-2′-[2-(tetrahydrogyran-4-yl)-ethoxy]-biphenyl-4-ol], the MIC in test [1] is 1 µg/mL (≈ 2.15 µM); in test [2], 8 µg/mL (≈ 17.2 µM). Further, the IC50 in test [3] is 5.6 nM; in test [4] it was 950 nM.
For `CCOc1cc(Cc2cnc(N)nc2N)cc(OCC2(C#N)CC2)c1-c1ccc(O)cc1` [Example 08-f, 1-[4-(2,4-Diamino-pyrimidin-5-ylmethyl)-6-ethoxy-4′-hydroxy-biphenyl-2-yloxymethyl]-cyclopropanecarbonitrile], the MIC turned out to be 4 µg/mL (≈ 9.27 µM) in test [1] and 8 µg/mL (≈ 18.5 µM) in test [2]. Besides, the half-inhibitory concentration (IC50) in test [3] is 49 nM; in test [4] it was 950 nM.
For `CCOc1cc(Cc2cnc(N)nc2N)cc(OCCc2ccccn2)c1-c1ccc(O)cc1` [Example 08-g, 4′-(2,4-Diamino-pyrimidin-5-ylmethyl)-6′-ethoxy-2′-(2-pyridin-2-yl-ethoxy)-biphenyl-4-ol] the same measures were 4 µg/mL (≈ 8.74 µM), 8 µg/mL (≈ 17.5 µM), 52 nM and 1300 nM.
For the molecule `CCOc1cc(Cc2cnc(N)nc2N)cc(OCC2CC2)c1-c1ccc(O)cc1` [Example 08-h, 2′-Cyclopropylmethoxy-4′-(2,4-diamino-pyrimidin-5-ylmethyl)-6′-ethoxy-biphenyl-4-ol], the results for the MIC in test [1] and in test [2] were 2 µg/mL (≈ 4.92 µM) and 4 µg/mL (≈ 9.84 µM), respectively. Also, the values for the IC50 in test [3] and in test [4] were 11 nM and 1200 nM, respectively.
For `CCOc1cc(Cc2cnc(N)nc2N)cc(OCC2CCC2)c1-c1ccc(O)cc1` [Example 08-i, 2′-Cyclobutylmethoxy-4′-(2,4-diamino-pyrimidin-5-ylmethyl)-6′-ethoxy-biphenyl-4-ol] the same measures were 4 µg/mL (≈ 9.51 µM), 2 µg/mL (≈ 4.76 µM), 40 nM and 1000 nM.
In the case of `CCOc1cc(Cc2cnc(N)nc2N)cc(OC2CCCC2)c1-c1ccc(O)cc1` [Example 08-j, 2′-Cyclopentylox-4′-(2,4-diamino-pyrimidin-5-ylmethyl)-6′-ethoxy-biphenyl-4-ol], the MIC in test [1] and in test [2] was 2 µg/mL (≈ 4.76 µM) each time. Moreover, the figures for the IC50 in test [3] and in test [4] were 26 nM and 1600 nM, respectively.
For the molecule `CCOc1cc(Cc2cnc(N)nc2N)cc(OC2CCC2)c1-c1ccc(O)cc1` [Example 08-k, 2′-Cyclobutoxy-4′-(2,4-diamino-pyrimidin-5-ylmethyl)-6′-ethoxy-biphenyl-4-ol], the MIC amounted to 2 µg/mL (≈ 4.92 µM) in test [1] and 4 µg/mL (≈ 9.84 µM) in test [2]. Also, the results for the concentration for half-maximal inhibition (IC50) in test [3] and in test [4] were 43 nM and 2100 nM, respectively.
Regarding `CCOc1cc(Cc2cnc(N)nc2N)cc(OCCC2CC2)c1-c1ccc(O)cc1` [Example 08-l, 2′-(2-Cydopropyl-ethoxy)-4′-(2,4-diamino-pyrimidin-5-ylmethyl)-6′-ethoxy-biphenyl-4-ol], the MIC stood at 8 µg/mL (≈ 19 µM) in test [1] and 4 µg/mL (≈ 9.51 µM) in test [2]. Also, the IC50 came out at 58 nM in test [3] and 2200 nM in test [4].
For `CCOc1cc(Cc2cnc(N)nc2N)cc(OC(C)C)c1-c1ccc(O)cc1` [Example 08-m, 4′-(2,4-diamino-pyrimidin-5-ylmethyl)-6′-ethoxy-2′-isopropoxy-biphenyl-4-ol], in that order: 4 µg/mL (≈ 10.1 µM), 8 µg/mL (≈ 20.3 µM), 65 nM and 860 nM.
For `CCOc1cc(Cc2cnc(N)nc2N)cc(OCC(C)C)c1-c1ccc(O)cc1` [Example 08-n, 4′-(2,4-Diamino-pyrimidin-5-ylmethyl)-6′-ethoxy-2′-isobutoxy-biphenyl-4-ol], in that order: 2 µg/mL (≈ 4.9 µM), 4 µg/mL (≈ 9.79 µM), 15 nM and 1200 nM.
For `CCOc1cc(Cc2cnc(N)nc2N)cc(OCC2(C)CC2)c1-c1ccc(O)cc1` [Example 08-o, 4′-(2,4-Diamino-pyrimidin-5-ylmethyl)-6′-ethoxy-2′-[(1-methyl-cyclopropyl)-methoxy]-biphenyl-4-ol] the same measures were 2 µg/mL (≈ 4.76 µM), 4 µg/mL (≈ 9.51 µM), 51 nM and 1400 nM.
Regarding `CCOc1cc(Cc2cnc(N)nc2N)cc(OCC(C)(C)CO)c1-c1ccc(O)cc1` [Example 08-p], the figures for the MIC in test [1] and in test [2] were 4 µg/mL (≈ 9.12 µM) and 8 µg/mL (≈ 18.2 µM), respectively. Also, the IC50 came out at 20 nM in test [3] and 800 nM in test [4].
As for `CCOc1cc(Cc2cnc(N)nc2N)cc(OCCc2scnc2C)c1-c1ccc(O)cc1` [Example 08-q, 4′-(2,4-Diamino-pyrimidin-5-ylmethyl)-6′-ethoxy-2′-[2-(4-methyl-thiazol-5-yl)-ethoxy]-biphenyl-4-ol], the MIC in test [1] and in test [2] was 8 µg/mL (≈ 16.8 µM) throughout. Also, the 50% inhibitory concentration (IC50) in test [3] is 28 nM; in test [4], 1400 nM.
On to `CCOc1cc(Cc2cnc(N)nc2N)cc(OC2CCC(OC)C2)c1-c1ccc(O)cc1` (stereo not shown) [Example 08-r, 5-[6-Ethoxy-2-(3-methoxy-cyclopentyloxy)-4′-hydroxy-biphenyl-4-ylmethyl]-pyrimidine-2,4-diamine], for which the MIC in test [1] and in test [2] was 8 µg/mL (≈ 17.8 µM) throughout. The figures for the IC50 in test [3] and in test [4] were 37 nM and 1200 nM, respectively.
For `CCOc1cc(Cc2cnc(N)nc2N)cc(OCC(F)(F)F)c1-c1ccc(O)cc1` [Example 08-s], the MIC in test [1] was determined as 2 µg/mL (≈ 4.6 µM); in test [2], 4 µg/mL (≈ 9.21 µM). In addition, the IC50 is 31 nM in test [3] and 3700 nM in test [4].
For `CCOc1cc(Cc2cnc(N)nc2N)cc(OC2CCC(CC#N)C2)c1-c1ccc(O)cc1` (stereo not shown) [Example 08-w, {3-[4-(2,4-Diamino-pyhmidin-5-ylmethyl)-6-ethoxy-4′-hydroxy-biphenyl-2-yloxy]-cyclopentyl}-acetonitrile] the same measures were 4 µg/mL (≈ 8.7 µM), 8 µg/mL (≈ 17.4 µM), 21 nM and 920 nM.
As to `CCOc1cc(Cc2cnc(N)nc2N)cc(OC2CCC(C#N)C2)c1-c1ccc(O)cc1` (stereo not shown) [Example 08-x, 3-[4-(2,4-Diamino-pyximidin-5-ylmethyl)-6-ethoxy-4′-hydroxy-biphenyl-2-yloxy]-cyclopentanecarbonitrile], the results for the MIC in test [1] and in test [2] were 4 µg/mL (≈ 8.98 µM) and 8 µg/mL (≈ 18 µM), respectively. The IC50 in test [3] worked out at 25 nM; in test [4], 1400 nM.
For `CCOc1cc(Cc2cnc(N)nc2N)cc(OCC(C)(C)COC)c1-c1ccc(OC)cc1` [Example 09-a, 5-[6-Ethoxy-4′-methoxy-2-(3-methoxy-2,2-dimethyl-propoxy)-biphenyl-4-ylmethyl]-pyrimidine-2,4-diamine] the same measures were 4 µg/mL (≈ 8.57 µM), 8 µg/mL (≈ 17.1 µM), 90 nM and 3100 nM.
For the molecule `CCOc1cc(Cc2cnc(N)nc2N)cc(OCC2(CCC#N)CC2)c1-c1ccc(OC)cc1` [Example 09-c, 3-{1-[4-(2,4-Diamino-pyrimidin-5-ylmethyl)-6-ethoxy-4′-methoxy-biphenyl-2-yloxymethyl]-cyclopropyl}-propionitrile], the MIC in test [1] turned out to be 1 µg/mL (≈ 2.11 µM); in test [2] it was 4 µg/mL (≈ 8.45 µM). The IC50 came to 16 nM in test [3] and 900 nM in test [4].
For `CCOc1cc(Cc2cnc(N)nc2N)cc(OCC2CC2)c1-c1ccc(OC)cc1` [Example 09-d, 5-(2-Cyclopropylmethoxy-6-ethoxy-4′-methoxy-biphenyl-4-ylmethyl)-pyrimidine-2.4-diamine], in that order: 2 µg/mL (≈ 4.76 µM), 4 µg/mL (≈ 9.51 µM), 30 nM and 1500 nM.
For the molecule `CCCOc1cc(Cc2cnc(N)nc2N)cc(OCC)c1-c1ccc(OC)cc1` [Example 09-e, 5-(6-Ethoxy-4′-methoxy-2-propoxy-biphenyl-4-ylmethyl)-pyrimidine-2,4-diamine], the MIC in test [1] and in test [2] was 4 µg/mL (≈ 9.79 µM) each time. For the same molecule, the half-maximal inhibitory concentration (IC50) came to 45 nM in test [3] and 1000 nM in test [4].
With `CCOc1cc(Cc2cnc(N)nc2N)cc(OC(C)C)c1-c1ccc(OC)cc1` [Example 09-f, 5-(2-Ethoxy-6-isopropopy-4′-methoxy-biphenyl-4-ylmethyl)-pyrimidine-2,4-diamine], the MIC in test [1] and in test [2] was 8 µg/mL (≈ 19.6 µM) throughout. Besides, the IC50 in test [3] amounted to 140 nM; in test [4], 1900 nM.
As for `CCOc1cc(Cc2cnc(N)nc2N)cc(OCC(C)C)c1-c1ccc(OC)cc1` [Example 09-g, 5-(2-Ethoxy-6-isobutox-4′-methoxy-biphenyl-4-ylmethyl)-pyrimidine-2,4-diamine], the MIC in test [1] and in test [2] was 4 µg/mL (≈ 9.47 µM) in each case. Also, the IC50 worked out at 50 nM in test [3] and 1600 nM in test [4].
